Results reported in ChEMBL document CHEMBL5465560, “Selectivity Literature for EUbOPEN Chemogenomic Library” (2024).

Assays:
[1] = target: T1, Megakaryocyte-associated tyrosine-protein kinase (Homo sapiens) (UniProt P42679); experiment: Selectivity interaction (KinomeScan (DiscoverX)) EUB0000595a MATK; conditions: at 10 µM
T1 sequence (whole entry): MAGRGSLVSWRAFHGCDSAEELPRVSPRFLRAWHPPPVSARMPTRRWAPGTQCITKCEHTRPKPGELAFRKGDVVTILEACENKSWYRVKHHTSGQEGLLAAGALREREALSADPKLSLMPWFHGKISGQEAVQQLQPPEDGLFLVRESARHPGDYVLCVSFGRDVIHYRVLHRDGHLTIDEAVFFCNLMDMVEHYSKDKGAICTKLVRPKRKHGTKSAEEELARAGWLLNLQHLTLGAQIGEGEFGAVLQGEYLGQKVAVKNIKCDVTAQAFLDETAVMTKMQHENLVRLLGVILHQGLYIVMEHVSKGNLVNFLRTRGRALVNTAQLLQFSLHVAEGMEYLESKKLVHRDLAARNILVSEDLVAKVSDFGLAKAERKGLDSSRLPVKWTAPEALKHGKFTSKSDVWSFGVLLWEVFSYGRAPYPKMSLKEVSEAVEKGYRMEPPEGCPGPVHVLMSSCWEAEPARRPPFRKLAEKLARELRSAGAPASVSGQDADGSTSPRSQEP

[2] = target: AP2-associated protein kinase 1 (Homo sapiens, UniProt Q2M2I8); experiment: Selectivity interaction (Kinase panel (DSF assay)) EUB0001559a AAK1
[3] = target: T2, Tyrosine-protein kinase receptor TYRO3 (Homo sapiens) (UniProt Q06418); experiment: Selectivity interaction (KinomeScan (DiscoverX)) EUB0000045b TYRO3
T2 sequence (whole entry): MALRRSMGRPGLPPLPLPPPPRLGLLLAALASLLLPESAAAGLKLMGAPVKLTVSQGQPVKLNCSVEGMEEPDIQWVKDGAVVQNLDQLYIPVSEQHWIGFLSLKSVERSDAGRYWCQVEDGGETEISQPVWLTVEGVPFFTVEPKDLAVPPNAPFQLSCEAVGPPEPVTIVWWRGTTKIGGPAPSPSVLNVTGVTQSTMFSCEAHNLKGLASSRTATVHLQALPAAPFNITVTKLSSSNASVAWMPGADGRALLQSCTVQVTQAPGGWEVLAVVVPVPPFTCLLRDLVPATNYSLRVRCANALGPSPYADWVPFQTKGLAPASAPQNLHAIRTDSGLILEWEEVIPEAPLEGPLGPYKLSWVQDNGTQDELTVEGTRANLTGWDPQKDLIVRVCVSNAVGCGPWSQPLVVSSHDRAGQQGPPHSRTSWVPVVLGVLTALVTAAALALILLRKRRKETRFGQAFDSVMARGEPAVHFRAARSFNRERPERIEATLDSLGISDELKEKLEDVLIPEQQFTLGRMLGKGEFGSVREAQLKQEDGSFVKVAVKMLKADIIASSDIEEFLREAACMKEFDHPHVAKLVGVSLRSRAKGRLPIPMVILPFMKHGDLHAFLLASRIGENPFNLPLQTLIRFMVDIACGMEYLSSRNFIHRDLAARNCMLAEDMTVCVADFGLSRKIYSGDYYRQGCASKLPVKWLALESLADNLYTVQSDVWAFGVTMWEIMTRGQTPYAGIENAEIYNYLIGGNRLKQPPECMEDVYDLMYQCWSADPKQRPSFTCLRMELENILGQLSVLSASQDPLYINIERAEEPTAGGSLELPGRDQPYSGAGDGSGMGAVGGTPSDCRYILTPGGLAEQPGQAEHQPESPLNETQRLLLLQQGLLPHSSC

[4] = target: MAP/microtubule affinity-regulating kinase 3 (Homo sapiens) (UniProt P27448); experiment: Selectivity interaction (ActivX KiNativ screen (kinase selectivity in THP-1 cell lysates)) EUB0000639a MARK3; type: subcellular; conditions: lysate, at 1 µM
[5] = target: Tyrosine-protein kinase Fyn (Homo sapiens) (UniProt P06241); experiment: Selectivity interaction (ActivX KiNativ screen (kinase selectivity in THP-1 cell lysates)) EUB0000639a FYN; type: subcellular; conditions: lysate, at 0.04 µM
[6] = target: T3, Peripheral plasma membrane protein CASK (Homo sapiens) (UniProt O14936); experiment: Selectivity interaction (KinomeScan (DiscoverX)) EUB0000655a CASK; conditions: at 10 µM
T3 sequence (whole entry): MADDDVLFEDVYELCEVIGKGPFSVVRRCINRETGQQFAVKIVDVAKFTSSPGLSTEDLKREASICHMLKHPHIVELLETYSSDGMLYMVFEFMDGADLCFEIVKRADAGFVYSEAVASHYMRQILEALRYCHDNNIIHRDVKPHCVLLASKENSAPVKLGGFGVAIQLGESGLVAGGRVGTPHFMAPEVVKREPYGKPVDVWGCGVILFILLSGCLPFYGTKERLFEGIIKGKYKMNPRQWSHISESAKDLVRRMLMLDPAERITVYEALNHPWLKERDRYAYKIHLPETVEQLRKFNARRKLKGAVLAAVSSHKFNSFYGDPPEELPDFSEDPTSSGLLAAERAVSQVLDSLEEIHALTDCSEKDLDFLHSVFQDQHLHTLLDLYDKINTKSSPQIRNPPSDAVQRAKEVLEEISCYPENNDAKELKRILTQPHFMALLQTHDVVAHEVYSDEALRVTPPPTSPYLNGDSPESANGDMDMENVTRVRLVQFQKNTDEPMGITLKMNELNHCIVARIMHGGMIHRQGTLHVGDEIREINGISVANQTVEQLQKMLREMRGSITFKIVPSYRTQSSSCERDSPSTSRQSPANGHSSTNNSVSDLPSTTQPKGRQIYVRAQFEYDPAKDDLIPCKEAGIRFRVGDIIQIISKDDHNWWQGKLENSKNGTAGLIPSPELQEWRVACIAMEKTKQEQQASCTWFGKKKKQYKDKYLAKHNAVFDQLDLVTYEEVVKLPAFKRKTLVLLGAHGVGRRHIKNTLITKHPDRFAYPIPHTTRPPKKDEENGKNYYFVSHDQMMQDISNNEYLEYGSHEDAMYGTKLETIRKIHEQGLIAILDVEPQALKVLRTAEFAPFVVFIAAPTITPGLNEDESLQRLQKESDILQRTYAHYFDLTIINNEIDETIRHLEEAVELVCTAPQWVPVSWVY

[7] = target: Dual specificity protein kinase CLK3 (Homo sapiens, UniProt P49761); experiment: Selectivity interaction (KinomeScan (DiscoverX)) EUB0000092b CLK3; conditions: at 10 µM
[8] = target: Calcium/calmodulin-dependent protein kinase type 1G (Homo sapiens) (UniProt Q96NX5); experiment: Selectivity interaction (KinomeScan (DiscoverX)) EUB0000092b CAMK1G; conditions: at 10 µM
Calcium/calmodulin-dependent protein kinase type 1G (Homo sapiens), sequence (Q96NX5 whole entry): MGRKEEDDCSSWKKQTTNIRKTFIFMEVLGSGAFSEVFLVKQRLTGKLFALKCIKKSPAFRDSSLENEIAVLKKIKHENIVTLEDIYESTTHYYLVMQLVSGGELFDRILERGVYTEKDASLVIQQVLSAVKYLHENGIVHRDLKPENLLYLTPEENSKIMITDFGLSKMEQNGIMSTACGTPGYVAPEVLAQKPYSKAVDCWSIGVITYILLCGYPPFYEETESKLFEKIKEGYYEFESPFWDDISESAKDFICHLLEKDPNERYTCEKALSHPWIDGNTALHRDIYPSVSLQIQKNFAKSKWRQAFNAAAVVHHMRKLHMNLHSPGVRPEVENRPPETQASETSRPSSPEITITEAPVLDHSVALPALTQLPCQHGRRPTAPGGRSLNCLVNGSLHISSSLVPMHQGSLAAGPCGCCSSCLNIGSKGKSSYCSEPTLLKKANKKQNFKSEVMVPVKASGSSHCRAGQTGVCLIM

Dual specificity protein kinase CLK3, sequence (P49761 whole entry, looked up): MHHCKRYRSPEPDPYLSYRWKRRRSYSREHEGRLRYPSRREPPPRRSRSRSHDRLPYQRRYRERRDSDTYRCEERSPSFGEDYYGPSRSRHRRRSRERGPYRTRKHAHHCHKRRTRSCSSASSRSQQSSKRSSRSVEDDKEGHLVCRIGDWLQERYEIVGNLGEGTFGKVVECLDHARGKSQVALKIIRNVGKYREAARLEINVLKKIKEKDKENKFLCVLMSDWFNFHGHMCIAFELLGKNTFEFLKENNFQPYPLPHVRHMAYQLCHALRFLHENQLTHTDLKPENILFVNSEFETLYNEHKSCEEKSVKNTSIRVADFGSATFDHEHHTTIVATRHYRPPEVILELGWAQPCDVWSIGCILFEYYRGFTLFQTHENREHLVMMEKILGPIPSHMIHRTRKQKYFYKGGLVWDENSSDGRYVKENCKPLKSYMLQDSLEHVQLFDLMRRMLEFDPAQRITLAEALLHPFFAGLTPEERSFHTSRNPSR
Tyrosine-protein kinase Fyn (Homo sapiens), sequence (P06241 2-537 limits assumed): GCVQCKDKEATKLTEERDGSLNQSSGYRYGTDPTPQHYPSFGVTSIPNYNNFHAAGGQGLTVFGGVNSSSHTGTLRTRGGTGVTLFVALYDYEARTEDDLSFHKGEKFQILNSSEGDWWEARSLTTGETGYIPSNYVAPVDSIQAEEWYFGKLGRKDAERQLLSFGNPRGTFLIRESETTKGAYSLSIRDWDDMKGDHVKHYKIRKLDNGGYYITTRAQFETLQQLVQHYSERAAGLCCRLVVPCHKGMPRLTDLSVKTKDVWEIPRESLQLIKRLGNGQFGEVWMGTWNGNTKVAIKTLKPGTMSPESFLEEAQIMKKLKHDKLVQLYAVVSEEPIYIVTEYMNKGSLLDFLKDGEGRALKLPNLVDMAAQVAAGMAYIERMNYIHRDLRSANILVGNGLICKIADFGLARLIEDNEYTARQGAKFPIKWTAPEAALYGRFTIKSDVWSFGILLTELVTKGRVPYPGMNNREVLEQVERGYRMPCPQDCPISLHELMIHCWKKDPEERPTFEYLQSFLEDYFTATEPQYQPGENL
MAP/microtubule affinity-regulating kinase 3 (Homo sapiens), sequence (P27448 whole entry, looked up): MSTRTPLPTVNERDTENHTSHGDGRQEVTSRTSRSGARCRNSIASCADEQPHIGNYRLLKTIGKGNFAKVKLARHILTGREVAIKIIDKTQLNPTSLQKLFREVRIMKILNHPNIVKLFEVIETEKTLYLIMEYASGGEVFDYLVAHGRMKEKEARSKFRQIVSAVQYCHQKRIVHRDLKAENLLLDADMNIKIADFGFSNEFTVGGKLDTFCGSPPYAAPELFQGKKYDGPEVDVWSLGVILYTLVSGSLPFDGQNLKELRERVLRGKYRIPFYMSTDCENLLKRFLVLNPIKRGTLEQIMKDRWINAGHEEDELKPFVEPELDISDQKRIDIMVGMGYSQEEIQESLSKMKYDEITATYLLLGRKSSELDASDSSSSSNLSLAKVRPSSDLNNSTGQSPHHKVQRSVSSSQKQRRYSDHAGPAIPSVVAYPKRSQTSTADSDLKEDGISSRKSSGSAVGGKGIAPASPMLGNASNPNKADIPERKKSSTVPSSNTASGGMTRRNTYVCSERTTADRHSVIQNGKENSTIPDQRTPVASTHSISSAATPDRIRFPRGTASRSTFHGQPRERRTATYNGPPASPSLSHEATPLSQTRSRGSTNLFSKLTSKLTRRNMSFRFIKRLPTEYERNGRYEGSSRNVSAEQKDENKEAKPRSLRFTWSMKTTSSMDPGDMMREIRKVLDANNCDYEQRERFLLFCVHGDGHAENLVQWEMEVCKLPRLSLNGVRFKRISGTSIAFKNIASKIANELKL
AP2-associated protein kinase 1, sequence (Q2M2I8 whole entry, looked up): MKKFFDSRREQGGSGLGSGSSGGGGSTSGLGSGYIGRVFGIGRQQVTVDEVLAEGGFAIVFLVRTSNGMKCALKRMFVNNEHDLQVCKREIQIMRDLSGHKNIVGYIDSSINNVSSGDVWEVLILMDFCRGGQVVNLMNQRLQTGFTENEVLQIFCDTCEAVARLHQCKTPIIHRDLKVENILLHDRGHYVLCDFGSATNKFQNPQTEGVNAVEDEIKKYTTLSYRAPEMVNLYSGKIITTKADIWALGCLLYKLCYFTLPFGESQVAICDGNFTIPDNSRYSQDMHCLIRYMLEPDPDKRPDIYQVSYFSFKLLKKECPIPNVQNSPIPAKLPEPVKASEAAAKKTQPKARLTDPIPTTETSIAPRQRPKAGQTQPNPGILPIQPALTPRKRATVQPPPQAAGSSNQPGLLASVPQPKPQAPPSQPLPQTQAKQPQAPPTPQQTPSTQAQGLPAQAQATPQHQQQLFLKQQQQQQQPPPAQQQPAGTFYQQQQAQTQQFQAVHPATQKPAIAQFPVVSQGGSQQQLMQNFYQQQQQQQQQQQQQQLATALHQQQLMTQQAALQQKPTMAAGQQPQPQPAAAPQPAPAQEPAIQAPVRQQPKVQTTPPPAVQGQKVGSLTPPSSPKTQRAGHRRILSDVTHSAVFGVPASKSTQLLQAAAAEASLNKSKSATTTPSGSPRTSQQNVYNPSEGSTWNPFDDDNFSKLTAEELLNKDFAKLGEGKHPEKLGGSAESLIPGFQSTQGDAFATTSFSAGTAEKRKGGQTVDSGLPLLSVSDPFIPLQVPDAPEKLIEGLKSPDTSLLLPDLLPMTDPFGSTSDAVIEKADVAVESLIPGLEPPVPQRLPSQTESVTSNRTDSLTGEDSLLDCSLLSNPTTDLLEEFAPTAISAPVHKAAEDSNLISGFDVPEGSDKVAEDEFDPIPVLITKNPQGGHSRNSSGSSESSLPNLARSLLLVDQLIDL

Q: For `COCC(=O)NC/C=C/c1ccc2ncnc(Nc3ccc(Oc4ccc(C)nc4)c(C)c3)c2c1` [CP-724714], which % of control [1] is on record?
A: Its % of control is 100%.

Q: How did the dTM [2] turn out when `CN(C(=O)c1cnn2cccnc12)c1cc2c(cc1N1CCOCC1)C(=O)N(C[C@@H](F)C(C)(C)O)C2` was run?
A: Its dTM is 0.3 K.

Q: What does the source list for `C=CC(=O)Nc1cc(-n2c(=O)ccc3cnc4ccc(-c5ccc(NS(C)(=O)=O)cc5)cc4c32)ccc1C`?
A: % of control ([3]; at 1 µM): 100%; % of control ([3]; at 10 µM): 100%

Q: `CC[C@@H]1[C@H](F)C(=O)N[C@@H]1COc1nccc2cc(C(N)=O)c(OC)cc12` [ZIMLOVISERTIB] was tested. Which % of inhibition [4] did it give?
A: The % of inhibition was 4.3%.

Q: And the % of inhibition [5]?
A: Its % of inhibition is -0.2%.

Q: How did the % of control [6] turn out when `CN(C)CCOc1ccc(-c2nc(-c3ccncc3)c(-c3ccc4c(c3)CC/C4=N\O)[nH]2)cc1` was run?
A: The % of control was 82%.

Q: Which results are given for `CCC(=O)N1CCN(c2ccc(-n3c(=O)ccc4cnc5ccc(-c6cnc7ccccc7c6)cc5c43)cc2C(F)(F)F)CC1`?
A: % of control [7]: 43%; % of control [8]: 74%
